Data as given in the supplement of paper PMC10307832.

Assays:
Assay in all cases: relative viability (nuclei count vs DMSO), 5 days (fraction); higher = more cells survive
[1] = compound: CC(C)(C)c1cc(NC(=O)Nc2ccc(-c3cn4c(n3)sc3cc(OCCN5CCOCC5)ccc34)cc2)no1 [Quizartinib] + CS(=O)(=O)N1CCN(Cc2cc3nc(-c4cccc5[nH]ncc45)nc(N4CCOCC4)c3s2)CC1 [Pictilisib] (partner 1 µM)
Summary of the method: (§1)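 Cells from lung cancer lines were seeded into 1536-well plates and, one day later, dosed by pin tool. Treatments were either a single drug or a fixed dose of an anchor drug with five library-drug doses (not always all listed) in √10 steps. After 5 days, nuclei were stained in a one-step fixation (final 0.05% Triton X-100, 1% formaldehyde, 1 ug/ml Hoechst) and counted on 4× images, and relative viability is the treated-to-vehicle nuclei ratio, as the median of duplicate plates.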

[2] = compound: CC(C)(C)c1cc(NC(=O)Nc2ccc(-c3cn4c(n3)sc3cc(OCCN5CCOCC5)ccc34)cc2)no1 [Quizartinib] + Nc1ncn([C@H]2C[C@H](O)[C@@H](CO)O2)c(=O)n1 [Decitabine] (partner 2 µM)
Summary of the method: as §1

[3] = compound: COCC[n+]1c2c(n(Cc3cnccn3)c1C)C(=O)c1ccccc1C2=O [YM155] + CC(=O)Nc1cccc(-n2c(=O)n(C3CC3)c(=O)c3c(Nc4ccc(I)cc4F)n(C)c(=O)c(C)c32)c1 [Trametinib] (partner 0.02 µM)
Summary of the method: as §1

[4] = compound: COCC[n+]1c2c(n(Cc3cnccn3)c1C)C(=O)c1ccccc1C2=O [YM155] + NC(=O)Nc1cc(-c2cccc(F)c2)sc1C(=O)N[C@H]1CCCNC1 [AZD7762] (partner 0.2 µM)
Summary of the method: as §1

| Cell Line | relative viability ([1]; first compound 0.003162 µM) | relative viability ([1]; first compound 0.01 µM) | relative viability ([1]; first compound 0.03162 µM) | relative viability ([1]; first compound 0.1 µM) | relative viability ([2]; first compound 0.001 µM) | relative viability ([2]; first compound 0.003162 µM) | relative viability ([2]; first compound 0.01 µM) | relative viability ([2]; first compound 0.03162 µM) | relative viability ([2]; first compound 0.1 µM) | relative viability ([3]; first compound 0.002 µM) | relative viability ([3]; first compound 0.006325 µM) | relative viability ([3]; first compound 0.02 µM) | relative viability ([3]; first compound 0.06325 µM) | relative viability ([4]; first compound 0.002 µM) | relative viability ([4]; first compound 0.006325 µM) | relative viability ([4]; first compound 0.02 µM) | relative viability ([4]; first compound 0.06325 µM) | relative viability ([1]; first compound 0.001 µM) |
| --- | --- | --- | --- | --- | --- | --- | --- | --- | --- | --- | --- | --- | --- | --- | --- | --- | --- | --- |
| HCC-366 | 0.138 | 0.103 | 0.137 | 0.138 | 0.313 | 0.334 | 0.352 | 0.331 | 0.314 | 0.353 | 0.421 | 0.371 | 0.353 | 0.315 | 0.28 | 0.327 | 0.273 |  |
| NCI-H1915 | 0.875 | 0.698 | 1 | 1.05 | 0.23 | 0.252 | 0.279 | 0.263 | 0.267 | 0.303 | 0.295 | 0.3 | 0.349 | 0.728 | 0.659 | 0.662 | 0.553 | 0.838 |
| HARA | 0.372 | 0.305 | 0.3 | 0.477 | 0.456 | 0.518 | 0.743 | 0.522 | 0.703 |  | 0.996 | 0.629 | 0.676 |  | 0.542 | 0.521 | 0.499 | 0.345 |
| NCI-H358 | 0.332 | 0.305 |  | 0.315 | 0.194 | 0.209 | 0.232 |  | 0.192 | 0.142 | 0.153 | 0.167 | 0.14 |  | 0.523 | 0.437 | 0.281 | 0.297 |
| PC-3 [JPC-3] | 0.794 | 0.834 | 0.733 | 0.73 | 0.837 | 0.843 | 0.841 | 0.862 | 0.831 | 0.774 | 0.666 | 0.685 | 0.598 | 0.742 | 0.872 | 0.927 | 0.697 | 0.656 |
| LXF-289 | 0.748 | 0.801 | 0.763 | 0.777 | 0.347 | 0.321 | 0.427 | 0.432 | 0.42 | 0.665 | 0.746 | 0.697 | 0.711 | 1.1 | 1.07 | 1.07 | 0.937 | 0.71 |
| NCI-H2170 | 0.327 | 0.308 | 0.42 | 0.321 | 0.424 | 0.466 | 0.468 | 0.578 | 0.44 | 0.878 | 0.936 | 0.903 | 0.966 | 0.873 | 0.817 | 0.839 | 0.734 | 0.388 |
| NCI-H2126 | 0.504 | 0.462 | 0.519 | 0.541 | 0.623 | 0.519 | 0.693 | 0.557 | 0.592 | 0.558 | 0.582 | 0.541 | 0.556 | 0.995 | 1.04 | 1.08 | 1.05 | 0.473 |
| NCI-H1755 | 0.439 | 0.416 | 0.401 | 0.436 | 0.59 | 0.676 | 0.71 | 0.722 | 0.734 | 0.764 | 0.752 | 0.751 | 0.755 | 0.478 | 0.445 | 0.427 | 0.493 | 0.39 |
